Measured values from US20220202912A1, “Polypeptides in Preparation of Drugs for Treatment or Prevention of Rheumatoid Arthritis” (priority 2011, published 2022).

Columns and labels:
[1] = system: TNF-α; assay: in vivo imaging of TNF-α expression, CIA transgenic TNF-luc mice; set-up: species or system BALB/c transgenic TNF-luc mice; details: day 36; Adalimumab 8 mg/kg, mPEG-SC20k-HM-3 20 mg/kg
Method: […] After the mice are lightly anesthetized with ether, the mice are fixed within 5-20 min and put into an in vivo imager, the imager is covered with an instrument lid, on-fluro and om-photo names in the desktop imaging interface of the computer are clicked, and the expose button is clicked to complete the fluorescence and white light photos of mice in vivo imaging. The specific imaging principle, operation steps, image processing and output are the same as those in the previous embodiment.

[2] = system: IL-6; assay: immunohistochemistry of IL-6 in spleen and thymus, AIA transgenic TNF-luc mice; assay type: in vivo, BALB/c transgenic TNF-luc mice; details: Adalimumab 8 mg/kg, mPEG-SC20k-HM-3 20 mg/kg
Method: (§1) Changes of expression of TNF-α and IL-6 are analyzed by HE staining and immunohistochemistry in the ankle joint, spleen and thymus of the mice. Observation and photographing are performed under the FOVs of ×200 and ×400 times respectively, 5 FOVs are taken randomly for each picture, and data statistics is performed.

[3] = system: TNF-α; assay: immunohistochemistry of TNF-α in ankle joints, AIA transgenic TNF-luc mice; assay type: in vivo, BALB/c transgenic TNF-luc mice; details: Adalimumab 8 mg/kg, mPEG-SC20k-HM-3 20 mg/kg
Method: as §1

[4] = system: CIA transgenic TNF-luc mice; assay: collagen type II-induced arthritis in transgenic TNF-luc mice (swelling, scores, weight); assay type: in vivo, BALB/c transgenic TNF-luc mice; set-up: key to joint index score / arthritis index score: 0–4 per paw, four paws summed, max 16; details: Adalimumab 8 mg/kg, mPEG-SC20k-HM-3 20 mg/kg; for right ankle swelling changes: CIA TNF-luc mice; for clinical score (Table 32, kg) / arthritis index score / clinical score: CIA chronic model
Method: 8 animals are randomly divided into 4 groups (n=2), a normal group, a model group, a positive drug group and a test group. On day 0, for the primary immunization, mice are hypodermically injected with 50 μL collagen emulsifier (containing CII 100 μg/ mouse) at the tail root of mice for sensitization. On day 0, initial ankle widths, initial foot palm widths and initial toe thicknesses of left and right feet of mice in each group are measured separately.
After day 21, the same dosage of emulsifier is used for second immunization at the tail root. After the symptoms such as redness and swelling of joints appear on the four toes of mice, continuous administration is performed for 15 days. The normal group and the model group are separately hypodermically injected with 0.9% normal saline (0.2 mL/20 g of body weight), once every 2 days, 7 times in total. The positive drug Adalimumab group is hypodermically injected with Adalimumab (8 mg/kg of body weight), once every 15 days, once in total. The test treatment group is hypodermically injected with mPEG-SC20k-HM-3 (20 mg/kg of body weight), once every 2 days, 7 times in total.
Every 2 days, the thickness of the ankle, the width of the foot palm and the thickness of the toes of each group of mice are measured with a vernier caliper.
Swelling degree of left ankle (cm)=swelling thickness of left ankle on day n of the experiment−measured initial thickness of left ankle.
Swelling degree of right ankle (cm)=swelling thickness of right ankle on day n of the experiment−measured initial thickness of right ankle.
The joints of the mouse paw are observed with naked eyes, and the joints are scored every 2 days from day 30. Scoring is performed in terms of level 0 to level 4, 5 levels in total. 0=no erythema or swelling; 1=slight erythema or swelling, with erythema or swelling on one of the front/hind toe joints; 2=erythema or swelling on more than one toe; 3=swelling of paw beneath the ankle or wrist joint; 4=swelling of all paws including the ankle joint. Four paws of the mice are scored separately, and the highest score is 16 points.
After the secondary inflammation appears, systemic scoring is performed every 2 days, and the scoring standards are as follows:
Hind foot: no swelling=0 point, swelling of one hind foot=1 point, swelling of two hind feet=2 points.
Front foot: no swelling=0, swelling of one front foot=1 point, swelling of two front feet=2 points.
Ears: no redness symptoms and nodules=0 point, redness symptoms or nodules of one ear=1 point, red symptoms and nodules of two ears=2 points.
Nose: no swelling=0 point, obvious swelling=1 point.
Tail: no nodule=0 point, nodules=1 point; the highest score is 8 points.

[5] = system: TNF-α; assay: immunohistochemistry of TNF-α in ankle joints, CIA transgenic TNF-luc mice; assay type: in vivo, BALB/c transgenic TNF-luc mice; details: Adalimumab 8 mg/kg, mPEG-SC20k-HM-3 20 mg/kg
Method: Determining criteria: The experimental results are determined based on the proportion of positive cells in all tissue cells and the staining intensity of positive cells: A: scoring is performed based on the number of chromogenic cells, 1 point is given when the proportion of the number of positive cells is less than ⅓, 2 points are given when the proportion of the number of positive cells is ⅓-⅔, and 3 points are given when the proportion of the number of positive cells is greater than or equal to ⅔. B: Based on the color depth of cells, 0 point is given when no cells have positive reaction, 1 point is given when cells are light yellow, 2 points are given when the cells are light brown, and 3 points are given when the cells are dark brown. Point product=A×B. The result is expressed in point product.

Adalimumab [reference compound]
in vivo fluorescence densities [1]: 20.76±4.43 10^5
immunohistochemical score of IL-6 in spleen [2]: 0.013±0.010
immunohistochemical score of IL-6 in thymus [2]: 0.039±0.041
immunohistochemical score of TNF-α in ankle joint cavity [3]: 0.246±0.110
left ankle swelling ([4]; 0 d): 0.000 ± 0.000 cm
right ankle swelling changes ([4]; 0 d, mean ± SD): 0.000 ± 0.000 cm
clinical score (Table 32, kg) ([4]; 0 d, mean ± SD): 0.000 ± 0.000
left ankle swelling ([4]; 12 d): 0.006 ± 0.050 cm
right ankle swelling changes ([4]; 12 d, mean ± SD): 0.010 ± 0.014 cm
clinical score (Table 32, kg) ([4]; 12 d, mean ± SD): 1.050 ± 0.778
left ankle swelling ([4]; 15 d): 0.011 ± 0.072 cm
right ankle swelling changes ([4]; 15 d, mean ± SD): 0.000 ± 0.028 cm
clinical score (Table 32, kg) ([4]; 15 d, mean ± SD): 0.940 ± 1.047
left ankle swelling ([4]; 18 d): 0.021 ± 0.058 cm
right ankle swelling changes ([4]; 18 d, mean ± SD): 0.012 ± 0.011 cm
clinical score (Table 32, kg) ([4]; 18 d, mean ± SD): 0.455 ± 0.247
left ankle swelling ([4]; 21 d): 0.001 ± 0.041 cm
right ankle swelling changes ([4]; 21 d, mean ± SD): 0.007 ± 0.010 cm
clinical score (Table 32, kg) ([4]; 21 d, mean ± SD): 0.230 ± 0.523
left ankle swelling ([4]; 24 d): 0.016 ± 0.048 cm
right ankle swelling changes ([4]; 24 d, mean ± SD): 0.009 ± 0.007 cm
clinical score (Table 32, kg) ([4]; 24 d, mean ± SD): 0.550 ± 0.212
left ankle swelling ([4]; 27 d): 0.007 ± 0.049 cm
right ankle swelling changes ([4]; 27 d, mean ± SD): 0.012 ± 0.017 cm
clinical score (Table 32, kg) ([4]; 27 d, mean): 1.295
left ankle swelling ([4]; 30 d): 0.012 cm
right ankle swelling changes ([4]; 30 d, mean ± SD): 0.008 ± 0.008 cm
clinical score (Table 32, kg) ([4]; 30 d, mean): 0.975
arthritis index score ([4]; 30 d, mean ± SD): 5.00 ± 2.83
clinical score ([4]; 30 d, mean ± SD): 5.00 ± 1.41
left ankle swelling ([4]; 33 d): 0.011 ± 0.041 cm
right ankle swelling changes ([4]; 33 d, mean ± SD): 0.011 ± 0.016 cm
arthritis index score ([4]; 33 d, mean ± SD): 8.00 ± 0.00
clinical score ([4]; 33 d, mean ± SD): 5.00 ± 0.00
clinical score (Table 32, kg) ([4]; 33 d, mean ± SD): 1.295 ± 0.177
left ankle swelling ([4]; 36 d): 0.012 ± 0.042 cm
right ankle swelling changes ([4]; 36 d, mean ± SD): 0.017 ± 0.007 cm
arthritis index score ([4]; 36 d, mean ± SD): 8.50 ± 0.71
clinical score ([4]; 36 d, mean ± SD): 5.00 ± 0.00
clinical score (Table 32, kg) ([4]; 36 d, mean ± SD): 2.200 ± 0.707
left ankle swelling ([4]; 39 d): 0.002 ± 0.031 cm
right ankle swelling changes ([4]; 39 d, mean ± SD): 0.007 ± 0.010 cm
arthritis index score ([4]; 39 d, mean ± SD): 6.50 ± 0.71
clinical score ([4]; 39 d, mean ± SD): 5.00 ± 0.00
clinical score (Table 32, kg) ([4]; 39 d, mean ± SD): 2.187 ± 0.443
left ankle swelling ([4]; 42 d): 0.003 ± 0.052 cm
right ankle swelling changes ([4]; 42 d, mean ± SD): 0.012 ± 0.017 cm
arthritis index score ([4]; 42 d, mean ± SD): 5.50 ± 0.71
clinical score ([4]; 42 d, mean ± SD): 5.00 ± 0.00
clinical score (Table 32, kg) ([4]; 42 d, mean ± SD): 2.655 ± 1.082
left ankle swelling ([4]; 45 d): 0.006 ± 0.051 cm
right ankle swelling changes ([4]; 45 d, mean ± SD): 0.005 ± 0.021 cm
arthritis index score ([4]; 45 d, mean ± SD): 5.00 ± 0.00
clinical score ([4]; 45 d, mean ± SD): 4.00 ± 0.00
clinical score (Table 32, kg) ([4]; 45 d, mean ± SD): 3.085 ± 1.478
left ankle swelling ([4]; 48 d): 0.007 ± 0.047 cm
right ankle swelling changes ([4]; 48 d, mean ± SD): 0.006 ± 0.006 cm
clinical score (Table 32, kg) ([4]; 48 d, mean): 3.415
arthritis index score ([4]; 48 d, mean ± SD): 5.00 ± 1.41
clinical score ([4]; 48 d, mean ± SD): 5.00 ± 0.00
left ankle swelling ([4]; 51 d): 0.001 cm
right ankle swelling changes ([4]; 51 d, mean ± SD): 0.004 ± 0.006 cm
clinical score (Table 32, kg) ([4]; 51 d, mean): 3.835
arthritis index score ([4]; 51 d, mean ± SD): 4.50 ± 0.71
clinical score ([4]; 51 d, mean ± SD): 4.50 ± 0.71
immunohistochemical score of TNF-α in ankle joint cavity [5]: 0.160±0.109
